{"source": "patent US10376520B2", "about": "“Methods for the treatment of cardiovascular disorders” (Galapagos NV, priority 2015, dated 2019)", "test_system": "RA patients", "test": "Total cholesterol determination, Study 1 (RA patients with inadequate response to methotrexate, add-on to MTX)", "format": "in vivo, human", "settings": "for [Total cholesterol] Median CFB / [total cholesterol] Mean CFB: Study 1 12 weeks results", "procedure": "Double-blind, placebo-controlled add on study in subjects with moderately to severely active RA who have an inadequate response to methotrexate (MTX) (oral or parenteral).\n595 subjects randomized to one of 6 dose regimens of Compound 1 (dosed as a [Compound 1:HCl:3H2O]) (3 dose levels administered either once or twice daily) or placebo on top of each subject's stable dose of MTX.\nCompound 1 (dosed as a [Compound 1:HCl:3H2O]) is dosed for twelve weeks once daily (q.d.) (50 mg, 100 mg or 200 mg) or twice daily (b.i.d.) (25 mg, 50 mg or 100 mg); or placebo.\nAt Week 12, the subjects on placebo who have not achieved 20% improvement in swollen joint count (SJC66) and tender joint count (TJC68) are re-randomized automatically to receive Compound 1 (dosed as a [Compound 1:HCl:3H2O]) either at 100 mg q.d. or 50 mg b.i.d. doses in a blinded fashion; subjects on 50 mg q.d. who have not achieved 20% improvement in SJC66 and TJC68 will be assigned to 100 mg q.d. and subjects on 25 mg b.i.d. that have not achieved a 20% improvement in SJC66 and TJC68 will be assigned to 50 mg b.i.d. Subjects who switch treatment at week 12 are handled as if they discontinued at week 12 for the purpose of statistical analysis, whereas subjects in the other groups will maintain their randomized treatment until Week 24.\nThis method is based on the determination of Δ^4 cholestenone after enzymatic cleavage of the cholesterol ester by cholesterol esterase, conversion of cholesterol by cholesterol oxidase, and subsequent measurement by the Trinder reaction of the hydrogen peroxide formed (Allain et al., 1974).\nCholesterol esters are cleaved by the action of cholesterol esterase to yield free cholesterol and fatty acids. Cholesterol oxidase then catalyzes the oxidation of cholesterol to cholest-4-en-3-one and hydrogen peroxide. In the presence of peroxidase, the hydrogen peroxide formed effects the oxidative coupling of phenol and 4-aminophenazone to form a red quinone-imine dye. The color intensity of the dye formed is directly proportional to the cholesterol concentration. It is determined by measuring the increase in absorbance.\nHuman serum and plasma samples cholesterol determination was done on a Roche/Hitachi Cobas c 701/702 system which automatically calculate the analyte concentration of each sample."}
{"compound": "O=C(Nc1nc2cccc(-c3ccc(CN4CCS(=O)(=O)CC4)cc3)n2n1)C1CC1", "note": "[Compound 1, cyclopropanecarboxylic acid {5-[4-(1,1-dioxo-thiomorpholin-4-ylmethyl)-phenyl]-[1,2,4]triazolo[1,5-a]pyridin-2yl}-amide]", "values": [{"measurement": "[total cholesterol] Mean percentage CFB - 12 weeks results", "setting": "50 mg q.d. (N = 82), week 1", "result": 1, "unit": "%"}, {"measurement": "[total cholesterol] Mean percentage CFB - 12 weeks results", "setting": "50 mg q.d. (N = 82), week 2", "result": 1, "unit": "%"}, {"measurement": "[total cholesterol] Mean percentage CFB - 12 weeks results", "setting": "50 mg q.d. (N = 82), week 4", "result": 1, "unit": "%"}, {"measurement": "[total cholesterol] Mean percentage CFB - 12 weeks results", "setting": "50 mg q.d. (N = 82), week 8", "result": 3, "unit": "%"}, {"measurement": "[total cholesterol] Mean percentage CFB - 12 weeks results", "setting": "50 mg q.d. (N = 82), week 12", "result": 5, "unit": "%"}, {"measurement": "[total cholesterol] Mean percentage CFB - 12 weeks results", "setting": "100 mg q.d. (N = 85), week 1", "result": 4, "unit": "%"}, {"measurement": "[total cholesterol] Mean percentage CFB - 12 weeks results", "setting": "100 mg q.d. (N = 85), week 2", "result": 2, "unit": "%"}, {"measurement": "[total cholesterol] Mean percentage CFB - 12 weeks results", "setting": "100 mg q.d. (N = 85), week 4", "result": 5, "unit": "%"}, {"measurement": "[total cholesterol] Mean percentage CFB - 12 weeks results", "setting": "100 mg q.d. (N = 85), week 8", "result": 4, "unit": "%"}, {"measurement": "[total cholesterol] Mean percentage CFB - 12 weeks results", "setting": "100 mg q.d. (N = 85), week 12", "result": 5, "unit": "%"}, {"measurement": "[total cholesterol] Mean percentage CFB - 12 weeks results", "setting": "200 mg q.d. (N = 86), week 1", "result": 6, "unit": "%"}, {"measurement": "[total cholesterol] Mean percentage CFB - 12 weeks results", "setting": "200 mg q.d. (N = 86), week 2", "result": 7, "unit": "%"}, {"measurement": "[total cholesterol] Mean percentage CFB - 12 weeks results", "setting": "200 mg q.d. (N = 86), week 4", "result": 8, "unit": "%"}, {"measurement": "[total cholesterol] Mean percentage CFB - 12 weeks results", "setting": "200 mg q.d. (N = 86), week 8", "result": 10, "unit": "%"}, {"measurement": "[total cholesterol] Mean percentage CFB - 12 weeks results", "setting": "200 mg q.d. (N = 86), week 12", "result": 10, "unit": "%"}, {"measurement": "[total cholesterol] Mean percentage CFB - 12 weeks results", "setting": "2 x 25 mg b.i.d. (N = 86), week 1", "result": 2, "unit": "%"}, {"measurement": "[total cholesterol] Mean percentage CFB - 12 weeks results", "setting": "2 x 25 mg b.i.d. (N = 86), week 2", "result": 3, "unit": "%"}, {"measurement": "[total cholesterol] Mean percentage CFB - 12 weeks results", "setting": "2 x 25 mg b.i.d. (N = 86), week 4", "result": 3, "unit": "%"}, {"measurement": "[total cholesterol] Mean percentage CFB - 12 weeks results", "setting": "2 x 25 mg b.i.d. (N = 86), week 8", "result": 3, "unit": "%"}, {"measurement": "[total cholesterol] Mean percentage CFB - 12 weeks results", "setting": "2 x 25 mg b.i.d. (N = 86), week 12", "result": 5, "unit": "%"}, {"measurement": "[total cholesterol] Mean percentage CFB - 12 weeks results", "setting": "2 x 50 mg b.i.d. (N = 85), week 1", "result": 3, "unit": "%"}, {"measurement": "[total cholesterol] Mean percentage CFB - 12 weeks results", "setting": "2 x 50 mg b.i.d. (N = 85), week 2", "result": 4, "unit": "%"}, {"measurement": "[total cholesterol] Mean percentage CFB - 12 weeks results", "setting": "2 x 50 mg b.i.d. (N = 85), week 4", "result": 7, "unit": "%"}, {"measurement": "[total cholesterol] Mean percentage CFB - 12 weeks results", "setting": "2 x 50 mg b.i.d. (N = 85), week 8", "result": 6, "unit": "%"}, {"measurement": "[total cholesterol] Mean percentage CFB - 12 weeks results", "setting": "2 x 50 mg b.i.d. (N = 85), week 12", "result": 6, "unit": "%"}, {"measurement": "[total cholesterol] Mean percentage CFB - 12 weeks results", "setting": "2 x 100 mg b.i.d. (N = 84), week 1", "result": 7, "unit": "%"}, {"measurement": "[total cholesterol] Mean percentage CFB - 12 weeks results", "setting": "2 x 100 mg b.i.d. (N = 84), week 2", "result": 8, "unit": "%"}, {"measurement": "[total cholesterol] Mean percentage CFB - 12 weeks results", "setting": "2 x 100 mg b.i.d. (N = 84), week 4", "result": 10, "unit": "%"}, {"measurement": "[total cholesterol] Mean percentage CFB - 12 weeks results", "setting": "2 x 100 mg b.i.d. (N = 84), week 8", "result": 15, "unit": "%"}, {"measurement": "[total cholesterol] Mean percentage CFB - 12 weeks results", "setting": "2 x 100 mg b.i.d. (N = 84), week 12", "result": 15, "unit": "%"}, {"measurement": "[Total cholesterol] Median CFB", "setting": "50 mg q.d., week 1", "result": 0.05, "unit": "mmol/L"}, {"measurement": "[total cholesterol] Mean CFB", "setting": "50 mg q.d., week 1", "result": 0.0, "unit": "mmol/L"}, {"measurement": "[Total cholesterol] Median CFB", "setting": "50 mg q.d., week 2", "result": 0.04, "unit": "mmol/L"}, {"measurement": "[total cholesterol] Mean CFB", "setting": "50 mg q.d., week 2", "result": 0.1, "unit": "mmol/L"}, {"measurement": "[Total cholesterol] Median CFB", "setting": "50 mg q.d., week 4", "result": 0.06, "unit": "mmol/L"}, {"measurement": "[total cholesterol] Mean CFB", "setting": "50 mg q.d., week 4", "result": 0.1, "unit": "mmol/L"}, {"measurement": "[Total cholesterol] Median CFB", "setting": "50 mg q.d., week 8", "result": 0.16, "unit": "mmol/L"}, {"measurement": "[total cholesterol] Mean CFB", "setting": "50 mg q.d., week 8", "result": 0.1, "unit": "mmol/L"}, {"measurement": "[Total cholesterol] Median CFB", "setting": "50 mg q.d., week 12", "result": 0.20, "unit": "mmol/L"}, {"measurement": "[total cholesterol] Mean CFB", "setting": "50 mg q.d., week 12", "result": 0.2, "unit": "mmol/L"}, {"measurement": "[Total cholesterol] Median CFB", "setting": "100 mg q.d., week 1", "result": 0.14, "unit": "mmol/L"}, {"measurement": "[total cholesterol] Mean CFB", "setting": "100 mg q.d., week 1", "result": 0.2, "unit": "mmol/L"}, {"measurement": "[Total cholesterol] Median CFB", "setting": "100 mg q.d., week 2", "result": 0.07, "unit": "mmol/L"}, {"measurement": "[total cholesterol] Mean CFB", "setting": "100 mg q.d., week 2", "result": 0.1, "unit": "mmol/L"}, {"measurement": "[Total cholesterol] Median CFB", "setting": "100 mg q.d., week 4", "result": 0.25, "unit": "mmol/L"}, {"measurement": "[total cholesterol] Mean CFB", "setting": "100 mg q.d., week 4", "result": 0.2, "unit": "mmol/L"}, {"measurement": "[Total cholesterol] Median CFB", "setting": "100 mg q.d., week 8", "result": 0.09, "unit": "mmol/L"}, {"measurement": "[total cholesterol] Mean CFB", "setting": "100 mg q.d., week 8", "result": 0.1, "unit": "mmol/L"}, {"measurement": "[Total cholesterol] Median CFB", "setting": "100 mg q.d., week 12", "result": 0.30, "unit": "mmol/L"}, {"measurement": "[total cholesterol] Mean CFB", "setting": "100 mg q.d., week 12", "result": 0.2, "unit": "mmol/L"}, {"measurement": "[Total cholesterol] Median CFB", "setting": "200 mg q.d., week 1", "result": 0.25, "unit": "mmol/L"}, {"measurement": "[total cholesterol] Mean CFB", "setting": "200 mg q.d., week 1", "result": 0.3, "unit": "mmol/L"}, {"measurement": "[Total cholesterol] Median CFB", "setting": "200 mg q.d., week 2", "result": 0.34, "unit": "mmol/L"}, {"measurement": "[total cholesterol] Mean CFB", "setting": "200 mg q.d., week 2", "result": 0.3, "unit": "mmol/L"}, {"measurement": "[Total cholesterol] Median CFB", "setting": "200 mg q.d., week 4", "result": 0.33, "unit": "mmol/L"}, {"measurement": "[total cholesterol] Mean CFB", "setting": "200 mg q.d., week 4", "result": 0.4, "unit": "mmol/L"}, {"measurement": "[Total cholesterol] Median CFB", "setting": "200 mg q.d., week 8", "result": 0.54, "unit": "mmol/L"}, {"measurement": "[total cholesterol] Mean CFB", "setting": "200 mg q.d., week 8", "result": 0.4, "unit": "mmol/L"}, {"measurement": "[Total cholesterol] Median CFB", "setting": "200 mg q.d., week 12", "result": 0.26, "unit": "mmol/L"}, {"measurement": "[total cholesterol] Mean CFB", "setting": "200 mg q.d., week 12", "result": 0.5, "unit": "mmol/L"}, {"measurement": "[Total cholesterol] Median CFB", "setting": "2 x 25 mg b.i.d., week 1", "result": 0.12, "unit": "mmol/L"}]}
